Results from patent publication US12097262B2, “mTORC1 inhibitors” (THE REGENTS OF THE UNIVERSITY OF CALIFORNIA, priority 2014, dated 2024).
Read-outs that look alike come from different tables or passages of the source.

Columns and labels:
[1] = system: mTORC1 (pS6 S240/244, P-4EBP1); assay: Western blot analysis in SNU-449 cells (E1010); format: cell-based, human; conditions: 3 hours (FIG. 13B)
Protocol: FIGS. 13A-13B. FIG. 13A: MCF-7 cells were treated for 4 hours with E1035 and M1071 before harvesting. FIG. 13B: SNU-449 cells were treated with 3 hours with E1010 before harvesting. Cells were lysed and blotted for the indicated proteins. M1071 has the narrowest concentration range between mTORC1 and mTORC2 inhibition. The concentration range between mTORC1 and mTORC2 inhibition widens for E1035.
Cell Culture and Western Blot Analysis. Cells were grown in 6-well plates and treated with inhibitor at the indicated concentrations or with vehicle (0.1% DMSO). Treated cells were lysed, and lysates were resolved by SDS-PAGE, transferred to nitrocellulose and blotted. All antibodies were purchased from Cell Signaling Technology.

SNU-398 = assay: Cell viability assay (CellTiter-Glo), SNU-398; format: cell-based, human; conditions: for EC50: 72 h after compound treatment; for inhibition at 10 µM: read-out: % inhibition at 10 μM SNU-398, 10 μM
Protocol: (§1) The cells were grown in appropriate medium (vender recommended) supplemented with 10% heat-inactivated fetal bovine serum (FBS), in tissue culture dishes placed in a humidified incubator maintained at 37° C. in an atmosphere of 5% CO2 and 95% air.
(§2) Cell viability assay. Cells were seeded in a 96-multiwell plate at 3000-4000 cells per well in medium containing FBS and cells were incubated at 37° C. overnight. After 18-20 h, compounds in 10×DMSO solution (n=3) were added to the cells and were incubated for additional 3 days in a humidified incubator in an atmosphere of 5% CO2 and 95% air. After treatment of Cell Titer-Glo® luminescent cell viability assay reagent (Promega Corporation, Madison, WI USA), the luminescence value was recorded using SpectraMax M5 Multi-Mode Microplate Readers (Molecular Devices, LLC, Sunnyvale, CA USA). Concentration response curves were generated on GraphPad Prism (GraphPad Software, La Jolla, CA USA) by calculating the decrease in luminescence values in compound-treated samples relative to the DMSO controls.
(§3) Anti-proliferative effects of compounds were evaluated in human colorectal cancer HCT-15 cells (mutation: KRAS, PIK3CA), human hepatocellular carcinoma SNU-449 (mutation: TP53, CDKN2A), SNU-398 (mutation: CTNNB 1), SNU-182 (mutation: TP53) and renal adenocarcinoma 786-O (mutation: VHL, PTEN, TP53, CDKN2A) in 72 h after compound treatment.

786-O = assay: Cell viability assay (CellTiter-Glo), 786-O; format: cell-based, human
Protocol: as §1, §2, §3

HCT-15 = assay: Cell viability assay (CellTiter-Glo), HCT-15; format: cell-based, human; conditions: for EC50: 72 h after compound treatment
Protocol: as §1, §2, §3

SNU-182 = assay: Cell viability assay (CellTiter-Glo), SNU-182; format: cell-based, human; conditions: for EC50: 72 h after compound treatment; for inhibition at 10 µM: read-out: % inhibition at 10 μM SNU-182, 10 μM
Protocol: as §1, §2, §3

[2] = system: mTORC1 and mTORC2 downstream signaling (pS6, p4E-BP1, pAkt S473); assay: Downstream signaling of mTOR by immunoblotting, dose dependence, HCT-15 and SNU-449 cells; format: cell-based, human; conditions: immunoblot at 3 h after compound treatment
Protocol: Downstream signaling of mTOR was tested using an immunoblotting method at 3 h after compound treatment.

SNU-449 = assay: Cell viability assay (CellTiter-Glo), SNU-449; conditions: for EC50: read-out: EC50 (nM) SNU-449; for inhibition at 10 µM: SNU-449, read-out: % inhibition at 10 μM SNU-449
Protocol: as §1, §2, §3

mTOR = mTOR (Homo sapiens, UniProt P42345); assay: Potency of the ASi mTOR inhibition; format: biochemical
[3] = system: mTORC1 and mTORC2 signaling (pS6, p4E-BP1, pAkt S473); assay: Time-course effects on mTORC1 and mTORC2 signaling in SNU-449; format: cell-based, human; conditions: 0.33-24 h
Protocol: Cellular Signaling Effects of Class mTOR Inhibitors. Cells were seeded in 60 mm cell culture dishes and incubated 1-2 days until 70-90% confluency. Cells were treated with compound solution in DMSO (1000×) and incubated at 37° C. in a 5% CO2 humidified incubator for a given length of time. Whole cell lysates were prepared using RIPA buffer (R^3792) (TEKnova, Hollister, CA USA) with a phosphatase inhibitor cocktail tablet PhosStop and a protease inhibitor cocktail tablet cOmplete Mini (Roche Diagnostics GmbH, Mannheim, Germany). Cell lysates (based on a certain amount of protein determined by Pierce BCA Protein Assay Kit (PI-23225) (Thermo Fisher Scientific Inc., Waltham, MA USA)) were electrophoresed using a Criterion Tris-HCl gel 4-20% (Bio-Rad Laboratories, Hercules, CA USA) and transferred to a nitrocellulose membrane (162-0115) (Bio-Rad Laboratories, Hercules, CA USA). After incubation for more than 1 h with a blocking buffer at room temperature, membranes were labeled with primary antibodies by overnight incubation at 4° C., followed by 1 hour incubation with horseradish peroxidase-conjugated (HRP-conjugated) secondary antibodies at room temperature. The following antibodies were used for immunoblot: phospho-Akt (S473) (#9271), phospho-Akt (T308) (#2965), total-Akt (#9272), phospho-S6 (Ser240/Ser244) (#2215L), S6 ribosomal protein (#2217), phospho-4E-BP1 (T37/T46) (#2855), total 4E-BP1 (#9644) (Cell Signaling Technology, Inc., Danvers, MA USA), FKBP12 (sc-28814) mouse β-actin (sc-8432) (Santa Cruz Biotechnology, Inc., Dallas, Texas USA), anti-rabbit IgG conjugated with horseradish peroxidase (HRP) (#7074), and anti-mouse IgG conjugated with HRP (#7076) (Cell Signaling Technology, Inc., Danvers, MA USA). Nitrocellulose membranes were exposed with SuperSignal® West Pico Chemiluminescent Substrate or Femto Maximum Sensitivity Substrate (Thermo Fisher Scientific Inc., Waltham, MA USA) and signals were recorded on a CL-Xposure film (Thermo Fisher Scientific Inc., Waltham, MA USA).

[4] = system: TORC1 and TORC2 outputs (p4E-BP1, pS6); assay: Drug washout experiment in SNU-449 cells; format: cell-based, human; conditions: 30 nM for 3 h, then washout
Protocol: Cellular Signaling Effects of Class mTOR Inhibitors. Cells were seeded in 60 mm cell culture dishes and incubated 1-2 days until 70-90% confluency. Cells were treated with compound solution in DMSO (1000×) and incubated at 37° C. in a 5% CO2 humidified incubator for a given length of time. […] After incubation for more than 1 h with a blocking buffer at room temperature, membranes were labeled with primary antibodies by overnight incubation at 4° C., followed by 1 hour incubation with horseradish peroxidase-conjugated (HRP-conjugated) secondary antibodies at room temperature. […] Nitrocellulose membranes were exposed with SuperSignal® West Pico Chemiluminescent Substrate or Femto Maximum Sensitivity Substrate (Thermo Fisher Scientific Inc., Waltham, MA USA) and signals were recorded on a CL-Xposure film (Thermo Fisher Scientific Inc., Waltham, MA USA).
Drug Washout Experiment. SNU-449 cells were treated with 30 nM of compounds for 3 h. The medium was aspirated out and cells were washed with fresh 10% FBS in RPMI1640 medium. Then, cells were incubated with fresh 10% FBS in RPMI1640 medium at 37° C. for described time period.

[5] = Effect on blood glucose level in mice; conditions: mice (n=3), intraperitoneal, Rapamycin treatment group (5 mg/kg, FIG. 10)
Text: Effect on blood glucose level. […] Blood glucose levels (mg/dL) were monitored.

Question: Which “inhibition of P-4EBP1” value [1] does the source give for `COc1ccc2[nH]c(-c3nn(CCCCNC(=O)CCOCCOCCOCCOCCOCCOCCOCCOCCn4cc(COCCO[C@@H]5CC[C@@H](C[C@@H](C)[C@@H]6CC(=O)[C@H](C)/C=C(\C)[C@@H](O)[C@@H](OC)C(=O)[C@H](C)C[C@H](C)/C=C/C=C/C=C(\C)[C@@H](OC)C[C@@H]7CC[C@@H](C)[C@@](O)(O7)C(=O)C(=O)N7CCCC[C@H]7C(=O)O6)C[C@H]5OC)nn4)c4ncnc(N)c34)cc2c1` [Compound E1010] here?
Answer: Its value is “little or no inhibition”.

Question: What about the “inhibition of pS6 (S240/244)” value [1] of the same compound?
Answer: The value was “inhibition”.

Question: And the mTORC1 inhibition [1]?
Answer: The mTORC1 inhibition was “only partially inhibits mTORC1”.

Question: With `COC1CC2CCC(C)C(O)(O2)C(=O)C(=O)N2CCCCC2C(=O)OC(C(C)CC2CCC(OCCOCc3cn(CCOCCOCCOCCOCCOCCOCCOCCNC(=O)CCCCn4nc(-c5ccc6oc(N)nc6c5)c5c(N)ncnc54)nn3)C(OC)C2)CC(=O)C(C)C=C(C)C(O)C(OC)C(=O)C(C)CC(C)C=CC=CC=C1C` (stereo not shown) [Compound M-1111, 40-O-(2-((1-(29-(4-amino-3-(2-aminobenzo[d]oxazol-5-yl)-1H-pyrazolo[3,4-d]pyrimidin-1-yl)-25-oxo-3,6,9,12,15,18,21-heptaoxa-24-azanonacosyl)-1H-1,2,3-triazol-4-yl)methoxy)ethyl)-rapamycin] as the compound, how does the “% inhibition at 10 μM SNU-398” value (SNU-398; 10 μM) read?
Answer: The value was “+++ (50% < +++ ≤ 100%)”.

Question: What about the EC50 (SNU-398) of the same compound?
Answer: The EC50 was under 10 nM.

Question: What about the “% inhibition at 10 μM 786-O” value (786-O; 10 μM) of the same compound?
Answer: Its value is “+++ (50% < +++ ≤ 100%)”.

Question: And the EC50 (786-O; 72 h after compound treatment)?
Answer: Its EC50 is 10 to 50 nM.

Question: And the “% inhibition at 10 μM HCT-15” value (HCT-15; 10 μM)?
Answer: Its value is “+++ (50% < +++ ≤ 100%)”.

Question: And the EC50 (HCT-15)?
Answer: Its EC50 is 10 to 50 nM.

Question: And the “% inhibition at 10 μM SNU-182” value (SNU-182; 10 μM)?
Answer: Its value is “++ (25% < ++ ≤ 50%)”.

Question: And the EC50 (SNU-182)?
Answer: Its EC50 is under 10 nM.

Question: And the “mTORC1/2 downstream inhibition (pS6, p4E-BP1 and pAkt S473)” value [2]?
Answer: Its value is “stronger inhibition of mTORC1 signaling (pS6 and p4E-BP1) compared to mTORC2 downstream Akt S473 phosphorylation”.

Question: What about the p4E-BP1 inhibition [2] of the same compound?
Answer: Its p4E-BP1 inhibition is “complete p4E-BP1 inhibition at drug concentrations in which pAkt S473 is not inhibited”.

Question: What about the “% inhibition at 10 μM SNU-449” value (SNU-449; 10 μM, SNU-449) of the same compound?
Answer: Its value is “++ (25% < ++ ≤ 50%)”.

Question: What about the EC50 (SNU-449; SNU-449, 72 h after compound treatment) of the same compound?
Answer: The EC50 was under 10 nM.

Question: For `CO[C@H]1C[C@@H]2CC[C@@H](C)[C@@](O)(O2)C(=O)C(=O)N2CCCC[C@H]2C(=O)O[C@H]([C@H](C)C[C@@H]2CC[C@@H](OCCOCc3cn(CCCCn4nc(-c5ccc6oc(N)nc6c5)c5c(N)ncnc54)nn3)[C@H](OC)C2)CC(=O)[C@H](C)/C=C(\C)[C@@H](O)[C@@H](OC)C(=O)[C@H](C)C[C@H](C)/C=C/C=C/C=C/1C` [Compound M-1115, 40-O-(2-((1-(4-(4-amino-3-(2-aminobenzo[d]oxazol-5-yl)-^1H-pyrazolo[3,4-d]pyrimidin-1-yl)butyl)-1H-1,2,3-triazol-4-yl)methoxy)ethyl)-rapamycin], which EC50 (SNU-398; Homo sapiens) is on record?
Answer: The EC50 was 10 to 50 nM.

Question: What about the EC50 (786-O; Homo sapiens, 786-0, 72 h after compound treatment) of the same compound?
Answer: The EC50 was over 100 nM.

Question: What about the EC50 (HCT-15; Homo sapiens) of the same compound?
Answer: Its EC50 is over 100 nM.

Question: And the EC50 (SNU-182; Homo sapiens)?
Answer: The EC50 was 10 to 50 nM.

Question: What about the p4E-BP1 inhibition [2] of the same compound?
Answer: Its p4E-BP1 inhibition is “weaker p4E-BP1 inhibition”.

Question: What about the EC50 (SNU-449; Homo sapiens, SNU-449, 72 h) of the same compound?
Answer: Its EC50 is over 100 nM.

Question: What does the source list for `CO[C@H]1C[C@@H]2CC[C@@H](C)[C@@](O)(O2)C(=O)C(=O)N2CCCC[C@H]2C(=O)O[C@H]([C@H](C)C[C@@H]2CC[C@@H](OCCOCc3cn(CCOCCOCCOCCOCCC(=O)NCCCCn4nc(-c5ccc6oc(N)nc6c5)c5c(N)ncnc54)nn3)[C@H](OC)C2)CC(=O)[C@H](C)/C=C(\C)[C@@H](O)[C@@H](OC)C(=O)[C@H](C)C[C@H](C)/C=C/C=C/C=C/1C` [Compound M-3059, 40-O-(2-((1-(20-(4-amino-3-(2-aminobenzo[d]oxazol-5-yl)-1H-pyrazolo[3,4-d]pyrimidin-1-yl)-15-oxo-3,6,9,12-tetraoxa-16-azaicosyl)-1H-1,2,3-triazol-4-yl)methoxy)ethyl)-rapamycin]?
Answer: inhibition at 10 µM (SNU-398; Homo sapiens): 50 to 100%; inhibition at 10 µM (SNU-182; Homo sapiens): < 25%; inhibition at 10 µM (SNU-449; Homo sapiens): < 25%

Question: Which IC50 (mTOR) does the source give for `COc1ccc2[nH]c(-c3nn(C(C)C)c4ncnc(N)c34)cc2c1` [MeO-PP242] here?
Answer: Its IC50 is over 10000 nM.

Question: Which inhibition at 10 µM (SNU-398; Homo sapiens) does the source give for `CO[C@H]1C[C@@H]2CC[C@@H](C)[C@@](O)(O2)C(=O)C(=O)N2CCCC[C@H]2C(=O)O[C@H]([C@H](C)C[C@@H]2CC[C@@H](O)[C@H](OC)C2)CC(=O)[C@H](C)/C=C(\C)[C@@H](O)[C@@H](OC)C(=O)[C@H](C)C[C@H](C)/C=C/C=C/C=C/1C` [Rapamycin, (3 S,6R,7E,9R,10R,12R,14S,15E,17E,19E,21S,23 S,26R,27R,34aS)-9,10,12,13,14,21,22,23,24,25,26,27,32,33,34,34a-hexadecahydro-9,27-dihydroxy-3-[(1R)-2-[(1S,3R,4R)-4-hydroxy-3-methoxycyclohexyl]-1-methylethyl]-10,21-dimethoxy-6,8,12,14,20,26-hexamethyl-23,27-epoxy-3H-pyrido[2,1-c][1,4]-oxaazacyclohentriacontine-1,5,11,28,29(4H,6H,31H)-pentone, reference compound] here?
Answer: Its inhibition at 10 µM is 25 to 50%.

Question: What about the inhibition at 10 µM (786-O; Homo sapiens, 786-0, read-out: % inhibition at 10 μM 786-O, 10 μM) of the same compound?
Answer: Its inhibition at 10 µM is under 25%.

Question: And the inhibition at 10 µM (HCT-15; Homo sapiens, read-out: % inhibition at 10 μM HCT-15, 10 μM)?
Answer: The inhibition at 10 µM was 25 to 50%.

Question: What about the inhibition at 10 µM (SNU-182; Homo sapiens) of the same compound?
Answer: Its inhibition at 10 µM is under 25%.

Question: And the “p4E-BP1 inhibition, time course” value [3]?
Answer: The value was “moderate inhibitory activity”.

Question: And the “phosphorylation of Akt S473, time course” value [3]?
Answer: Its value is “transient feedback activation on Akt S473 at 1 and 3 h, and then a slight inhibition was observed at 24 h”.

Question: What about the “maintenance of effects after washout” value [4] of the same compound?
Answer: Its value is “maintained longer after washout compared to asTORi”.

Question: And the blood glucose level [5]?
Answer: Its blood glucose level is “no increase in blood glucose levels”.

Question: What about the inhibition at 10 µM (SNU-449; Homo sapiens) of the same compound?
Answer: Its inhibition at 10 µM is under 25%.
